SMILES strings stand for the structures.

Usually IC50 stands for the concentration at which inhibition is half-maximal.

The conditions of data set [1]: cited from earlier work.
Data set [2] concerns the target T1, TYRO3 (Homo sapiens, UniProt Q06418).
T1 sequence (Q06418 41-890): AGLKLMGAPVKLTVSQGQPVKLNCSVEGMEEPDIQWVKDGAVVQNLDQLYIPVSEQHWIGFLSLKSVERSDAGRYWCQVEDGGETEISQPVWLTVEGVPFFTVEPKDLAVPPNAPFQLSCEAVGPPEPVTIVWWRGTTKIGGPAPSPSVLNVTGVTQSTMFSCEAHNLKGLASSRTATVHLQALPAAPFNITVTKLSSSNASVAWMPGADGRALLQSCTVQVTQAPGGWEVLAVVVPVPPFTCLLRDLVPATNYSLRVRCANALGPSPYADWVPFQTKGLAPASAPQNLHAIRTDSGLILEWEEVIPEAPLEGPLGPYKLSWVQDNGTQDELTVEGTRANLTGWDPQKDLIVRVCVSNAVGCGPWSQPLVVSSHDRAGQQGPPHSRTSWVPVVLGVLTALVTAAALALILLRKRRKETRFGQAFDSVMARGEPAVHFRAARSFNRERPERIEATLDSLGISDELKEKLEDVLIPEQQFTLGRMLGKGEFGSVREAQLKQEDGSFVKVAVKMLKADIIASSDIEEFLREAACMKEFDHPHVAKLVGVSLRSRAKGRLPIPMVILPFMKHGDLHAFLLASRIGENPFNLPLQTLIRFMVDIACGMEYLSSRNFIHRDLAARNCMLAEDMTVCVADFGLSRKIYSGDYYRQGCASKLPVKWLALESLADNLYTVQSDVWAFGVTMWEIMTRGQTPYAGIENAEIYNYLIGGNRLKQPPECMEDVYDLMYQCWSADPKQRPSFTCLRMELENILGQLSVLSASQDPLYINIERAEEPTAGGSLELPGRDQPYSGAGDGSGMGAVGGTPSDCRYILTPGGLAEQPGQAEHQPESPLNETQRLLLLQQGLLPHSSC
Description: Microfluidic capillary electrophoresis (MCE) kinase activity assay, Tyro3. Type of data set: biochemical. As to conditions: Table 2; MCE assay, ATP at Km.
Description: (§1) All reactions were terminated by addition of 20 μL of 70 mM EDTA. After a 180 min incubation, phosphorylated and unphosphorylated substrate peptides (Table 6) were separated in buffer supplemented with 1× CR-8 on a LabChip EZ Reader equipped with a 12-sipper chip. Data were analyzed using EZ Reader software.

Data set [3] has as its target T2, MERTK (Homo sapiens, UniProt Q12866).
T2 sequence (Q12866 21-999): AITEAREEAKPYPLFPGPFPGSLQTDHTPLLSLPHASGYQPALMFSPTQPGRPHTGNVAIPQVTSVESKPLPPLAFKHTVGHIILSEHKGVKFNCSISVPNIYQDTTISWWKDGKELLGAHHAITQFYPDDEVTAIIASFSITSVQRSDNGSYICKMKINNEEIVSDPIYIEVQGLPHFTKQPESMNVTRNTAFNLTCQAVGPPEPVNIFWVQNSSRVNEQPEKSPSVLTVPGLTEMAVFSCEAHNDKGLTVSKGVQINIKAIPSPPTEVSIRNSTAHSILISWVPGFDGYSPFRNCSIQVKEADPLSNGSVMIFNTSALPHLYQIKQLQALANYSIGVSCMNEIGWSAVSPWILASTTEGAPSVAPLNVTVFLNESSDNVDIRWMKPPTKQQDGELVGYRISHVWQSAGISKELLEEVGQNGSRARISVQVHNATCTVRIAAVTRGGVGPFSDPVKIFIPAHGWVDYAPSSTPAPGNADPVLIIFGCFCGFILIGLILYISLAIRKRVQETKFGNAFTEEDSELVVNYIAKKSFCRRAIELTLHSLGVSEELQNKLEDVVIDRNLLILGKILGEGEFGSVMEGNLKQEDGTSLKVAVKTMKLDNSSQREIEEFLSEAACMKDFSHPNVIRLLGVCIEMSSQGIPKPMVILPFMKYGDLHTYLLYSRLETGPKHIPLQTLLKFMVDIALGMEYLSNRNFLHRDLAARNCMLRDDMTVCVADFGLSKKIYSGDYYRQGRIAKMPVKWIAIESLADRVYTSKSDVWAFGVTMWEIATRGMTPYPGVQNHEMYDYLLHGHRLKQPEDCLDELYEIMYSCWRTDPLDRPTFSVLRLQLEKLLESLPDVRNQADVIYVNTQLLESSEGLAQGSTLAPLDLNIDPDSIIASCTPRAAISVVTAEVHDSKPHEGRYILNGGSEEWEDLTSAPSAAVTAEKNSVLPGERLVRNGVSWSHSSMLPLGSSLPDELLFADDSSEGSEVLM
Description: Microfluidic capillary electrophoresis (MCE) kinase activity assay, Mer. Type of data set: biochemical. As to conditions: Table 2; MCE assay, ATP at Km.
Description: as §1

In data set [4] the target is T3, AXL (Homo sapiens, UniProt P30530).
T3 sequence (P30530 26-894): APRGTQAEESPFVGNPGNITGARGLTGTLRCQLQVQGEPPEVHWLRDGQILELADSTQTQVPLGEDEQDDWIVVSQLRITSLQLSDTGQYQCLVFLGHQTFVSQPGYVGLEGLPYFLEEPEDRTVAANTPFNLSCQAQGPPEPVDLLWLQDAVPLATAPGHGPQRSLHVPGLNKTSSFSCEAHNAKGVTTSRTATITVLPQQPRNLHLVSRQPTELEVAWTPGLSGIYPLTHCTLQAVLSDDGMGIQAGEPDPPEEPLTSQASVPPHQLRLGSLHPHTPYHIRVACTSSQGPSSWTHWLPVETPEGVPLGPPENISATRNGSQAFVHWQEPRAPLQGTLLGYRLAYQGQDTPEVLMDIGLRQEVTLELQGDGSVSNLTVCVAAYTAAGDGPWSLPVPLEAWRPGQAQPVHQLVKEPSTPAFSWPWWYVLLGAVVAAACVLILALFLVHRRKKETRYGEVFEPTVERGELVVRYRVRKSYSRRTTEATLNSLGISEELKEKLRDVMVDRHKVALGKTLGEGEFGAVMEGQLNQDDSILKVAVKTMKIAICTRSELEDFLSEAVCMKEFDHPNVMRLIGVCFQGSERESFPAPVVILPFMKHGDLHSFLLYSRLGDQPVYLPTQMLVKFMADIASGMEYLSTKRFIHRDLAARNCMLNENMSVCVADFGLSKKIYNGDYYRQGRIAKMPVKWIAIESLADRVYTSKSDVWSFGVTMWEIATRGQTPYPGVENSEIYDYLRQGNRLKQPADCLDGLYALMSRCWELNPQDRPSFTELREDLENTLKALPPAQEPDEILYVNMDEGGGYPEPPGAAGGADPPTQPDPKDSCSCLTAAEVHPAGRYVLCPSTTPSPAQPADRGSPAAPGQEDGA
The experiment in a line: Microfluidic capillary electrophoresis (MCE) kinase activity assay, Axl. Type of data set: biochemical. The settings on record: Table 2; MCE assay, ATP at Km.
Description: as §1

In the case of `COC(=O)[C@H](c1ccccc1Cl)N1CCc2sccc2C1` [clopidogrel], in data set [1] (added to aspirin), the “further increase of major bleeding risk on addition as a combination therapy” value is given as 1%.

`CC(=O)Oc1ccccc1C(=O)O` [aspirin]: in data set [1] (in vivo), the “baseline major bleeding risk (gastrointestinal or intracranial)” value is reported as 1-4%.

Regarding `CN1CCCN(Cc2ccc(-c3cn([C@H]4CC[C@H](O)CC4)c4nc(Nc5cc(F)cc(Cl)c5)ncc34)cc2)CC1` [Compound 24], the values for the IC50 in data set [2], in data set [3] and in data set [4] were less than 10 nM, less than 10 nM and 10 to 100 nM, respectively.

Regarding `CN1CCN(Cc2ccc(-c3cn([C@H]4CC[C@H](O)CC4)c4nc(Nc5cccnc5)ncc34)cc2)CC1` [Compound 64], the IC50 in data set [2], in data set [3] and in data set [4] was less than 10 nM throughout.

Take `CN1CCN(Cc2ccc(-c3cn([C@H]4CC[C@H](O)CC4)c4nc(Nc5cc(F)cc(Cl)c5)ncc34)cc2)CC1` [Compound 7]: the IC50 in data set [2] is less than 10 nM; in data set [3] it was less than 10 nM; in data set [4], 10 to 100 nM.

On to `CN1CCC(Oc2ccc(-c3cn([C@H]4CC[C@H](O)CC4)c4nc(Nc5cc(F)cc(Cl)c5)ncc34)cc2)CC1` [Compound 37], for which the IC50 in data set [2] was less than 10 nM; in data set [3], less than 10 nM; in data set [4] it was 10 to 100 nM.

As to `CN1CCN(Cc2ccc(-c3cn([C@H]4CC[C@H](O)CC4)c4nc(Nc5cncnc5)ncc34)cc2)CC1` [Compound 66], the IC50 in data set [2], in data set [3] and in data set [4] was less than 10 nM in each case.

Consider `O[C@H]1CC[C@H](n2cc(-c3ccc(CN4CCN(C5CCCC5)CC4)cc3)c3cnc(Nc4cc(F)cc(Cl)c4)nc32)CC1` [Compound 31], for which the IC50 in data set [2] is less than 10 nM; in data set [3] it was less than 10 nM; in data set [4] it was 10 to 100 nM.
